Assay results from PubChem BioAssay (NCI).
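Assay format: 96-well plates, 48-hour exposure. The concentration for full growth arrest is given as TGI.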

Key:
Assay in all cases: DTP human tumour cell line panel, 48 h
T-47D breast = tested on: T-47D breast
SNB-19 CNS = tested on: SNB-19 CNS
A549 NSCLC = tested on: A549 NSCLC
SN12C renal = tested on: SN12C renal
HCT-116 colon = tested on: HCT-116 colon
OVCAR-5 ovarian = tested on: OVCAR-5 ovarian
IGROV1 ovarian = tested on: IGROV1 ovarian
SR leukemia = tested on: SR leukemia
COLO 205 colon = tested on: COLO 205 colon
SK-MEL-2 melanoma = tested on: SK-MEL-2 melanoma
SK-OV-3 ovarian = tested on: SK-OV-3 ovarian
PC-3 prostate = tested on: PC-3 prostate
OVCAR-8 ovarian = tested on: OVCAR-8 ovarian
RXF 393 renal = tested on: RXF 393 renal
UACC-62 melanoma = tested on: UACC-62 melanoma
RPMI-8226 leukemia = tested on: RPMI-8226 leukemia
NCI-H23 lung = tested on: NCI-H23 lung
OVCAR-3 ovarian = tested on: OVCAR-3 ovarian
KM12 colon = tested on: KM12 colon
MCF7 breast = tested on: MCF7 breast
NCI-H226 lung = tested on: NCI-H226 lung
EKVX NSCLC = tested on: EKVX NSCLC
A498 renal = tested on: A498 renal
K-562 leukemia = tested on: K-562 leukemia
ACHN renal = tested on: ACHN renal
HL-60(TB) leukemia = tested on: HL-60(TB) leukemia
TK-10 renal = tested on: TK-10 renal
SF-539 CNS = tested on: SF-539 CNS
HT29 colon = tested on: HT29 colon
SF-268 CNS = tested on: SF-268 CNS
CCRF-CEM leukemia = tested on: CCRF-CEM leukemia
UACC-257 melanoma = tested on: UACC-257 melanoma
M14 melanoma = tested on: M14 melanoma
NCI/ADR-RES ovarian = tested on: NCI/ADR-RES ovarian
HCT-15 colon = tested on: HCT-15 colon
NCI-H460 lung = tested on: NCI-H460 lung
UO-31 renal = tested on: UO-31 renal
HS 578T breast = tested on: HS 578T breast
LOX IMVI melanoma = tested on: LOX IMVI melanoma
MDA-MB-231 breast = tested on: MDA-MB-231 breast
SNB-75 CNS = tested on: SNB-75 CNS
HCC-2998 colon = tested on: HCC-2998 colon
U251 CNS = tested on: U251 CNS
SW-620 colon = tested on: SW-620 colon
MDA-N = tested on: MDA-N
HOP-92 NSCLC = tested on: HOP-92 NSCLC
786-0 renal = tested on: 786-0 renal
MDA-MB-435 = tested on: MDA-MB-435
DU-145 prostate = tested on: DU-145 prostate
CAKI-1 renal = tested on: CAKI-1 renal
SF-295 CNS = tested on: SF-295 CNS
MALME-3M melanoma = tested on: MALME-3M melanoma
HOP-62 NSCLC = tested on: HOP-62 NSCLC
MOLT-4 leukemia = tested on: MOLT-4 leukemia
OVCAR-4 ovarian = tested on: OVCAR-4 ovarian
SK-MEL-28 melanoma = tested on: SK-MEL-28 melanoma
NCI-H522 lung = tested on: NCI-H522 lung
SK-MEL-5 melanoma = tested on: SK-MEL-5 melanoma

Measured: TGI

Oc1oc(-c2ccccc2)nc1/C=C1/C=NN=N1
not listed: NCI-H522 lung | SK-MEL-5 melanoma
> 100 µM: all other assays above

O=C(OCc1c(-c2ccccc2)nn(-c2ccccc2)c1COC(=O)Oc1ccccc1)Oc1ccccc1
not listed: SK-MEL-2 melanoma | UO-31 renal
> 100 µM: all other assays above
